Assay: Photobleaching of biotinylated fluorophores on avidin-coated magnetic particles, epifluorescent microscope
Type: physicochemical
Settings: bound to 1.3 μm avidin-coated magnetic particles, constant excitation, images every 30 seconds
Protocol: FIG. 6 illustrates a photobleaching profile of biotinylated fluorophores, in accordance with various embodiments.
In one specific, non-limiting example, the photobleaching of commercially available biotin-4-carboxyfluorescein (CF-biotin), and biotin-squaraine rotaxane (SQR-biotin) was examined by measuring the half-life of each of the probes. The dyes were incubated in excess with 1.3 μm magnetic particles coated in avidin. Following the incubation, the particles were washed of any unbound fluorophore, and the samples were then imaged on an epifluorescent microscope. The samples remained under constant excitation and images were captured every 30 seconds. Using ImageJ software, a region of interest (ROI) was drawn around the imaged magnetic particles and the mean pixel intensity was measured for each image.

biotin-4-carboxyfluorescein [CF-biotin]
photobleaching profile (fluorescence intensity versus time): dramatic photobleaching
